Reference: US20140371280A1, “Method of treating diabetic peripheral neuropathy through amendment of pre-neuronal diabetic coagulative micro-angiopathy and neuronal deficiency of mitochondrial ATP production, and through induction of neuronal regeneration” (priority 2013, published 2014)

Experiments:
[1] = tested on: neoangiogenesis; conditions: yes/no; cited from earlier work
[2] = tested on: arterioles; conditions: yes/no; cited from earlier work
[3] = tested on: insulin sensitization; conditions: yes/no; cited from earlier work
[4] = tested on: platelet aggregation; conditions: yes/no; cited from earlier work
[5] = tested on: diabetic peripheral neuropathy; assay: Clinical case: diabetic person with DPN of stocking-glove pattern and maceration in the big toe; type: in vivo, human patient
Description: An elderly patient of DPN with advanced DM of hyperglycemia, hypoinsulinemia, and HgbA1C elevated to 7.5%, presented themself with a typical stocking-glove pattern of DPN accompanied by maceration in the left big toe. A bitherapy of SAG+ALC halted their DPN.
The present DPN-relieving invention includes mainly four parts: (1) rescue with SAG-ALC of the tormenting DPN distress of pain, cold sensation, and maceration in the stocking-glove pattern; (2) expansion of the SAG-ALC regimen to include ALA; (3) extended use of the SAG+ALC+ALA principle for prevention of recurrence and maintenance; and (4) an extended use of the principle for induction of neuronal regeneration with SAG+ALC+ALA. • (1) Prompt halt of DPN symptoms with the application of SAG in order to amend the pre-neuronal coagulative microangiopathy and with ALC to amend the neuronal mitochondrial fatty acid transport across the carnithine window so as to help generating ATP through β-oxidation of fatty acids: the SAG+ALC principle. • A person with a 10-year history of DM developed signs and symptoms of DPN of the stocking-glove pattern and maceration in the big toe in the depth. […] The dosage could be 100 to 200 mg three times a day unless contraindicated by hemorrhagic diathesis. They were relieved of the distress but limitedly for 2-3 hours of post-dose. The patient was greatly depressed to learn that neuronal loss that could have already taken place might not be recovered with the SAG (Srinivasan et al. 2000)). • ALC was added at 1500 mg per day. The dosage range could be 500 to 4500 mg per day in the hope of eventual induction of neuronal regeneration (Tagliatela et al. 1991; Ishii et al. 2000). […] Thus, the SAG and ALC appeared to work synergistically. Within 2 months of this combination treatment, the soft swelling due to maceration in the depth of the big toe resolved (FIG. 1e). This ALC-SAG combination therapy may be continued as long as one's DPN status persists. […]

Molecule | Neo-angiogenesis [1] | Arteriolar dilation [2] | Insulin-sensitization [3] | Anti-platelet Aggregation [4] | Duration of relief of distress post-dose ([5]; SAG 600 mg per day, monotherapy) [h] | Duration of halt of DPN's pain and cold intolerance per dose ([5]; each 200 mg dose of SAG, monotherapy) [h] | Effect on DPN symptoms (pain, cold sensation, numbness) ([5]; patient, SAG 600 mg, ALC 1500 mg, ALA 600 mg per day, EPR 100 mg three times a day, as combined)
CC/C=C\C/C=C\C/C=C\C/C=C\C/C=C\CCCC(=O)OCC [Epadel, ethyl icosapentate] | No | Yes | No | Yes | – | – | –
CC1CNc2c(cccc2S(=O)(=O)N[C@@H](CCCNC(=N)N)C(=O)N2CC[C@@H](C)C[C@@H]2C(=O)O)C1 (some centres unmarked) [Novastan, argatroban hydrate] | No | Yes | No | Yes | – | – | –
O=C1CCc2cc(OCCCCc3nnnn3C3CCCCC3)ccc2N1 [Pletaal, cilostazol] | No | Yes | No | Yes | – | – | –
COc1cccc(CCc2ccccc2OCC(CN(C)C)OC(=O)CCC(=O)O)c1 (centres unmarked) [SAG, sarpogrelate] | Yes | Yes | Yes | Yes | 2 to 3 | 3 to 4 | appreciably but passingly alleviated
Heparin | No | No | No | Yes | – | – | –
